Non-standard residues stand in square brackets, D forms with d. No end group written: not given here. Oic = O=C(O)[C@@H]1C[C@@H]2CCCC[C@@H]2N1; dTic = O=C(O)[C@H]1Cc2ccccc2CN1
Test system: bradykinin response of isolated guinea pig ileum
Experiment: Anti-bradykinin activity on isolated guinea pig ileum
Conditions: Table 1; higher numbers indicate higher potency
Description: (§1) In general, Anti-bradykinin activity was determined by the classical guinea pig ileum assay and on Chinese hamster ovary (CHO) cells expressing cloned human bradykinin B2 receptors. Anti-tumor activity was determined on cultured human cancer cell lines using the standard tetrazolium (MTT) assay.
Male Hartley guinea pigs that had been deprived of food overnight were sacrificed, and sections of terminal ileum, 25 mm in length, were dissected, attached to tissue holders and immersed in 10 ml tissue baths containing Krebs' solution bubbled with 95% O2/5% CO2. Tissues were placed under 1 g tension and incubated for 1 h equilibration. Concentration-effect curves were constructed to bradykinin in the absence and presence of new compounds.

Row | Compound | GPI: pA2 for bradykinin antagonist activity on isolated guinea pig ileum
1 | Dcg-Trx-Arg [M134] | 4.9
2 | Dcg-p-Amb-Arg [M346] | 4.6
3 | Dcg-Igl-Arg [M70] | 4.8
4 | Aaa-DArg-Arg-Pro-Hyp-Gly-(D,L)DMF-Ser-DTic-Oic-Arg [B9126-2] | 7.3
5 | F5c-DArg-Arg-Aud-DTic-hPhe-Arg [M766] | 5.1
6 | RPPGFT[dTic][Oic]-NH2 [B10284] | 7.7
7 | Ac-Pac-Gly-m-Abz-2-Nal-Arg [M198] | 5.1
8 | Arg-Eac-DIgl-Ana-Arg [M406] | Inact
9 | Dcg-Apa-Arg [M78] | 5.6
10 | DArg-Arg-Pro-Hyp-Gly-Thi-Ser-CpG-DCpG-DArg [B8858] | 5.2
11 | F5c-Dpr(Paa)-Arg [M690] | 4.8
12 | F5c-m-APa-Arg [M412] | 5.8
13 | Ac-PdF-Arg [M118-3] | 5.4
14 | DArg-Arg-Pro-Hyp-Gly-CpG-Ser-DCpG-CpG-Arg [B8838] | 7.0
15 | F5c-Tic-Arg [M382] | 4.7
16 | Dcg-(D,L)Ata-Arg [M96] | 4.7
17 | Dcg-2Nal-Arg [M10] | 4.8
18 | F5c-APb-Arg [M372] | 4.6
19 | Gun-Eac-DIgl-Oic-Arg [M42] | 5.0
20 | Gun-2-Nal-Arg [M20] | 4.6
21 | Dcg-Ile-Arg [M84] | 5.1
22 | F5c-Dpr(Fbz)-Arg [M688] | Inact

Same assay, conditions: isolated guinea pig ileum; pD2 of bradykinin is 7.4; higher numbers indicate higher potency

Row | Compound | GPI: pA2 for bradykinin antagonist activity on isolated guinea pig ileum
23 | N=C(N)NCCCCCC(=O)NC(Cc1ccc2ccccc2c1)C(=O)NC(Cc1ccc(NC(=N)N)cc1)C(=O)O (centres unmarked) [M8] | Inact
24 | N=C(Nc1ccc(CC(NC(=O)c2ccc3ccccc3c2)C(=O)O)cc1)NC1CCCCC1 (centres unmarked) [M168-1] | 4.8
25 | COc1cc(C=CC(=O)NC(Cc2c(F)c(F)c(F)c(F)c2F)C(=O)NC(Cc2cccnc2)C(=O)O)cc(OC)c1O (centres unmarked) [M136] | Inact
26 | O=C(O)Cc1ccc(NC(=O)C(Cc2ccc3ccccc3c2)NC(=NC2CCCCC2)NC2CCCCC2)cc1 (centres unmarked) [M36] | 5.0
27 | CC1(C)C=C(C(=O)NCCNC(=O)[C@H](Cc2ccc3ccccc3c2)NC(=NC2CCCCC2)NC2CCCCC2)C(C)(C)N1 [M270] | 6.1
28 | CC1(C)CC(NC(=O)C(CCC(=O)O)NC(=O)C(Cc2ccc3ccccc3c2)NC(=NC2CCCCC2)NC2CCCCC2)CC(C)(C)N1 (centres unmarked) [M350] | 5.0
29 | Nc1cc(NC(=O)C(Cc2ccc3ccccc3c2)NC(=NC2CCCCC2)NC2CCCCC2)cc(C(=O)O)c1 (centres unmarked) [M92-1] | 5.0
30 | O=C(Cc1ccc(NC(=NC2CCCCC2)NC2CCCCC2)cc1)Nc1cccc(C(=O)O)c1 [M122-2] | 4.6
31 | CC1(C)CC(NC(=O)[C@H](Cc2ccc3ccccc3c2)NC(=O)C23CC4CC(CC(C4)C2)C3)CC(C)(C)N1 [M250] | 5.2
32 | O=C(O)c1cc(NC(=O)C(Cc2ccc3ccccc3c2)NC(=NC2CCCCC2)NC2CCCCC2)cc(NC(=NC2CCCCC2)NC2CCCCC2)c1 (centres unmarked) [M92-4] | 5.0
33 | O=C(O)CC(NC(=NC1CCCCC1)NC1CCCCC1)C(=O)NC1CN2CCC1CC2 (centres unmarked) [M174] | Inact
34 | CC1(C)CC(NC(=O)C(CC(=O)O)NC(=O)Cc2ccc(NC(=NC3CCCCC3)NC3CCCCC3)cc2)CC(C)(C)N1 (centres unmarked) [M362] | 4.9
35 | O=C(NC(CNC(=O)C(Cc1ccc2ccccc2c1)NC(=NC1CCCCC1)NC1CCCCC1)C(=O)O)C1CCNCC1 (centres unmarked) [M172] | 4.9
36 | O=C(C=Cc1c(F)c(F)c(F)c(F)c1F)Nc1ccc(C(=O)N[C@@H](Cc2ccc3ccccc3c2)C(=O)O)cc1 [M180] | 5.1
37 | O=C(C=Cc1ccc(NC(=NC2CCCCC2)NC2CCCCC2)cc1)NCC(=O)Nc1cccc(C(=O)NC(Cc2ccc3ccccc3c2)C(=O)O)c1 (centres unmarked) [M340] | 4.8
38 | CN1CCN(NC(=O)[C@H](Cc2ccc3ccccc3c2)NC(=O)C=Cc2ccc(NC(=O)CCCCCCCCCCC(=O)Nc3ccc(C=CC(=O)N[C@@H](Cc4ccc5ccccc5c4)C(=O)NN4CCN(C)CC4)cc3)cc2)CC1 [M480-2] | 5.6
39 | CC1(C)CC(NC(=O)C(CC(=O)O)NC(=O)Cc2ccc(NC(=O)C=Cc3ccc(C(F)(F)F)cc3)cc2)CC(C)(C)N1 (centres unmarked) [M368] | 4.7
40 | O=C(O)Cc1ccc(NC(=O)C(Cc2ccc3ccccc3c2)NC(=NC2CCCCC2)NC2CCCCC2)cc1 (centres unmarked) [M30] | 5.4
41 | N=C(N)Nc1cc(NC(=O)C(Cc2ccc3ccccc3c2)NC(=NC2CCCCC2)NC2CCCCC2)cc(C(=O)O)c1 (centres unmarked) [M92-2] | 4.8
42 | O=C(NC(Cc1ccc(NC(=NC2CCCCC2)NC2CCCCC2)cc1)C(=O)O)c1ccc2ccccc2c1 (centres unmarked) [M168-2] | 4.7

Test system: SCLC strain SHP-77
Experiment: Colorimetric tetrazolium (MTT) assay for cell survival, SCLC strain SHP-77
Format: cell-based, human
Conditions: SCLC strain SHP-77 in vitro
Description: as §1
Cell growth and survival were measured by a rapid colorimetric assay based on the tetrazolium salt MTT (3-(4,5-dimethylthiazol-2-yl)-2,5-diphenyl tetrazolium bromide) (Mosmann, J Immunol. Methods 65: 55–63, 1983, with minor modifications). Briefly, 1,000 normal lung fibroblasts or normal epithelial BEAS-2B cells, 1,000 or 5,000 viable non-SCLC cells or 10,000 viable SCLC cells were plated in 100 μL of growth medium in 96-well flat-bottomed microtiter plates. Cells were incubated overnight to allow recovery. Compounds to be tested were added to the cells in triplicate in a range of concentrations and the cells were incubated at 37° C., 5% CO2, with 100% humidity. Control cells were treated in the same way without antagonists. […] Plates were incubated for 4 days, allowing sufficient time for cell replication and compound-induced cell death to occur. On day 5, 25 μL of a 2 mg/mL solution of MTT (Sigma) dissolved in RMPI-1640was added to each well. The plate was incubated for 4 h at 37° C. The supernate was removed and the blue formazan complex was dissolved by adding 100 μL of 0.02 N HCl in 75% isopropanol to all wells. Absorbance was immediately determined using a scanning multiwell plate reader. B9870 caused 50% cell death at a concentration of 0.15 μM under these conditions.

Row | Compound | MTT: ED50 for killing of SCLC strain SHP-77 in vitro [µM]
43 | CC1(C)CC(NC(=O)C(Cc2csc3ccccc23)NC(=NC2CCCCC2)NC2CCCCC2)CC(C)(C)N1 (centres unmarked) [M440] | 30
44 | CC1(C)CC(NC(=O)C(Cc2ccc(-c3ccccc3)cc2)NC(=O)C=Cc2cccnc2)CC(C)(C)N1 (centres unmarked) [M296] | 15
45 | CC1(C)CC(NC(=O)C2CC3CCCCC3N2C(=O)C=Cc2c(F)c(F)c(F)c(F)c2F)CC(C)(C)N1 (centres unmarked) [M320] | 13
46 | CC1(C)CC(NC(=O)C(Cc2ccc(OCc3c(Cl)cccc3Cl)cc2)NC(=O)CN(CCN(CC(=O)NC(Cc2ccc(OCc3c(Cl)cccc3Cl)cc2)C(=O)NC2CC(C)(C)NC(C)(C)C2)CC(=O)NC(Cc2ccc(OCc3c(Cl)cccc3Cl)cc2)C(=O)NC2CC(C)(C)NC(C)(C)C2)CC(=O)NC(Cc2ccc(OCc3c(Cl)cccc3Cl)cc2)C(=O)NC2CC(C)(C)NC(C)(C)C2)CC(C)(C)N1 (centres unmarked) [M1040, EDTA-(OC2Y-ATMP)4] | 0.73
47 | CC1(C)CC(NC(=O)C2Cc3ccccc3CN2C(=O)C=Cc2c(F)c(F)c(F)c(F)c2F)CC(C)(C)N1 (centres unmarked) [M322] | 7.6
48 | CN(C)c1ccc(CNC(=O)C(Cc2ccc(OCc3c(Cl)cccc3Cl)cc2)NC(=O)C=Cc2c(F)c(F)c(F)c(F)c2F)cc1 (centres unmarked) [M798] | 37
49 | CC1(C)CC(NC(=O)C(Cc2ccc3ccccc3c2)NC(=O)c2ccc(NC(=N)N)cc2)CC(C)(C)N1 (centres unmarked) [M306] | >100
50 | CC1(C)CC(NC(=O)C(Cc2cccc3ccccc23)NC(=O)C(Cc2cnc[nH]2)NC(=O)CCCCCCCCCCC(=O)NC(Cc2cnc[nH]2)C(=O)NC(Cc2cccc3ccccc23)C(=O)NC2CC(C)(C)NC(C)(C)C2)CC(C)(C)N1 (centres unmarked) [M660] | 30

Same assay, conditions: Table 1; SHP-77, MTT, 4 days

Row | Compound | MTT: ED50 for killing of SCLC strain SHP-77 in vitro
51 | Ac-OC2Y-Arg [M784] | Inact
52 | Dmac-DArg-Arg-Aud-Ser-D5F5-Oic-Arg [M968] | 15 µM
53 | F5c-PFF-Arg-NH2 [M812] | 15 µM
54 | Ppa-PFF-Arg [M814] | Inact
55 | Dcg-hPhe-Arg [M558] | 100 µM
56 | Aaa-Pac-hPhe-Arg [M752-6] | Inact
57 | DDD-(DArg-Arg-Eac-Ser-DIgl-PFF-Arg)2 [M932] | 6.0 µM
58 | Pya-hPhe-Arg [M540] | >100 µM
59 | F5c-DArg-hPhe-Arg [M612] | Inact
60 | ζ-SUB-(ApC-F5F-Arg)2 [M926] | Inact
61 | 33Dp-DArg-Arg-Aud-Ser-D5F5-Oic-Arg [M964] | 4 to 8 µM
62 | DDD-(DArg-Arg-Aud-Pac-2Nal-DArg-NH2)2 [M710] | 1.7 µM
63 | α-DDD-(ApC-F5F-Arg)2 [M930] | Inact

Same assay, conditions: Table 3, cyclic peptides

Row | Compound | MTT: ED50 for killing of SCLC strain SHP-77 in vitro [µM]
64 | c[DArg-Arg-Eac-DIgl-PFF-Arg] [M896] | 65
65 | c[Suc-DArg-Arg-Eac-Ser-DIgl-PaF]-Arg [M924] | 37

Reference: patent publication US7071168B2, “Anti-cancer compounds and methods related thereto” (The Regents of the University of Colorado, priority 1998, dated 2006)
